In PubChem BioAssay AID1963980 (Molecular Pharmacology Branch, DTP, NCI, 2024):

Test system: 475296-252-R-J1-PDC spheroid viability
Experiment: Anticancer human tumor 475296-252-R-J1-PDC patient-derived rectal carcinoma cell line growth inhibition [PI3K]
Details: spheroids with HUVEC and MSC; for viability, T/C: stronger effect = lower value
In short: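 Viability of mixed-cell spheroids was determined after exposure to pairwise combinations, one partner being inavolisib, alpelisib, duvelisib or copanlisib. Highest tested concentration matched clinical Cmax where known and 10 microM where not, descending in half-log steps.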

[1] = curve of first compound, second compound 0.0316 µM
[2] = curve of first compound, second compound 0.1 µM
[3] = curve of first compound, second compound 0.316 µM
[4] = curve of first compound, second compound 1 µM
[5] = second compound 0.0316 µM, first compound 0.0316 µM
[6] = second compound 0.0316 µM, first compound 0.1 µM
[7] = second compound 0.1 µM, first compound 0.0316 µM
[8] = second compound 0.1 µM, first compound 0.1 µM
[9] = second compound 0.316 µM, first compound 0.0316 µM
[10] = second compound 0.316 µM, first compound 0.1 µM
[11] = second compound 1 µM, first compound 0.0316 µM
[12] = second compound 1 µM, first compound 0.1 µM
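Also: spheroids exposed to agents for seven days before readout.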

Cn1ncnc1[C@H]1c2n[nH]c(=O)c3cc(F)cc(c23)N[C@@H]1c1ccc(F)cc1 + COc1c(OCCCN2CCOCC2)ccc2c3n(c(=NC(=O)c4cnc(N)nc4)nc12)CCN3
IC50 (curve of first compound, second compound 0.00316 µM): > 0.1 µM
IC50 (curve of first compound, second compound 0.01 µM): > 0.1 µM
IC50 [1]: > 0.1 µM
IC50 [2]: > 0.1 µM
IC50 [3]: > 0.1 µM
IC50 [4]: > 0.1 µM
viability, T/C (second compound 0.00316 µM, first compound 0.000316 µM): 91.6%
viability, T/C (second compound 0.00316 µM, first compound 0.001 µM): 99%
viability, T/C (second compound 0.00316 µM, first compound 0.00316 µM): 115%
viability, T/C (second compound 0.00316 µM, first compound 0.01 µM): 99.5%
viability, T/C (second compound 0.00316 µM, first compound 0.0316 µM): 116%
viability, T/C (second compound 0.00316 µM, first compound 0.1 µM): 109%
viability, T/C (second compound 0.01 µM, first compound 0.000316 µM): 95.5%
viability, T/C (second compound 0.01 µM, first compound 0.001 µM): 104%
viability, T/C (second compound 0.01 µM, first compound 0.00316 µM): 108%
viability, T/C (second compound 0.01 µM, first compound 0.01 µM): 99.4%
viability, T/C (second compound 0.01 µM, first compound 0.0316 µM): 116%
viability, T/C (second compound 0.01 µM, first compound 0.1 µM): 94.7%
viability, T/C (second compound 0.0316 µM, first compound 0.000316 µM): 93.1%
viability, T/C (second compound 0.0316 µM, first compound 0.001 µM): 98%
viability, T/C (second compound 0.0316 µM, first compound 0.00316 µM): 106%
viability, T/C (second compound 0.0316 µM, first compound 0.01 µM): 99.2%
viability, T/C [5]: 94.2%
viability, T/C [6]: 93.3%
viability, T/C (second compound 0.1 µM, first compound 0.000316 µM): 85.3%
viability, T/C (second compound 0.1 µM, first compound 0.001 µM): 99.1%
viability, T/C (second compound 0.1 µM, first compound 0.00316 µM): 94.8%
viability, T/C (second compound 0.1 µM, first compound 0.01 µM): 75.1%
viability, T/C [7]: 85%
viability, T/C [8]: 75.8%
viability, T/C (second compound 0.316 µM, first compound 0.000316 µM): 82.4%
viability, T/C (second compound 0.316 µM, first compound 0.001 µM): 73.1%
viability, T/C (second compound 0.316 µM, first compound 0.00316 µM): 71.7%
viability, T/C (second compound 0.316 µM, first compound 0.01 µM): 86.1%
viability, T/C [9]: 67.8%
viability, T/C [10]: 75.7%
viability, T/C (second compound 1 µM, first compound 0.000316 µM): 65.4%
viability, T/C (second compound 1 µM, first compound 0.001 µM): 65%
viability, T/C (second compound 1 µM, first compound 0.00316 µM): 63.5%
viability, T/C (second compound 1 µM, first compound 0.01 µM): 70.8%
viability, T/C [11]: 70.8%
viability, T/C [12]: 55.4%

Cc1nc(NC(=O)N2CCCC2C(N)=O)sc1-c1ccnc(C(C)(C)C(F)(F)F)c1 (stereo unspecified)
viability, T/C (compound 0.0316 µM): 98.6% [middle of 8 runs]
viability, T/C (compound 0.1 µM): 97.1% [middle of 8 runs]
viability, T/C (compound 0.316 µM): 97% [middle of 8 runs]
viability, T/C (compound 1 µM): 99.7% [middle of 8 runs]
viability, T/C (compound 3.16 µM): 90.8% [middle of 8 runs]
viability, T/C (compound 10 µM): 81.6% [middle of 8 runs]
IC50 (compound alone, run of 06/12/2023): > 10 µM

C=CC(=O)N1CCN(c2nc(=O)n(-c3c(C)ccnc3C(C)C)c3nc(-c4c(O)cccc4F)c(F)cc23)C(C)C1 (stereo unspecified) + Cc1nc(NC(=O)N2CCCC2C(N)=O)sc1-c1ccnc(C(C)(C)C(F)(F)F)c1
IC50 [1]: > 10 µM
IC50 [2]: > 10 µM
IC50 [3]: > 10 µM
IC50 [4]: > 10 µM
IC50 (curve of first compound, second compound 3.16 µM): > 10 µM
IC50 (curve of first compound, second compound 10 µM): > 10 µM
viability, T/C [5]: 90%
viability, T/C [6]: 79.2%
viability, T/C (second compound 0.0316 µM, first compound 0.316 µM): 99.9%
viability, T/C (second compound 0.0316 µM, first compound 1 µM): 89.7%
viability, T/C (second compound 0.0316 µM, first compound 3.16 µM): 106%
viability, T/C (second compound 0.0316 µM, first compound 10 µM): 102%
viability, T/C [7]: 105%
viability, T/C [8]: 75.8%
viability, T/C (second compound 0.1 µM, first compound 0.316 µM): 106%
viability, T/C (second compound 0.1 µM, first compound 1 µM): 82%
viability, T/C (second compound 0.1 µM, first compound 3.16 µM): 104%
viability, T/C (second compound 0.1 µM, first compound 10 µM): 108%
viability, T/C [9]: 90.4%
viability, T/C [10]: 107%
viability, T/C (second compound 0.316 µM, first compound 0.316 µM): 96.4%
viability, T/C (second compound 0.316 µM, first compound 1 µM): 103%
viability, T/C (second compound 0.316 µM, first compound 3.16 µM): 96.8%
viability, T/C (second compound 0.316 µM, first compound 10 µM): 95%
viability, T/C [11]: 88%
viability, T/C [12]: 94.1%
viability, T/C (second compound 1 µM, first compound 0.316 µM): 99.8%
viability, T/C (second compound 1 µM, first compound 1 µM): 97.5%
viability, T/C (second compound 1 µM, first compound 3.16 µM): 109%
viability, T/C (second compound 1 µM, first compound 10 µM): 95.8%
viability, T/C (second compound 3.16 µM, first compound 0.0316 µM): 83.6%
viability, T/C (second compound 3.16 µM, first compound 0.1 µM): 85%
viability, T/C (second compound 3.16 µM, first compound 0.316 µM): 95.2%
viability, T/C (second compound 3.16 µM, first compound 1 µM): 87.2%
viability, T/C (second compound 3.16 µM, first compound 3.16 µM): 92.9%
viability, T/C (second compound 3.16 µM, first compound 10 µM): 93.8%
viability, T/C (second compound 10 µM, first compound 0.0316 µM): 94.6%
viability, T/C (second compound 10 µM, first compound 0.1 µM): 87.8%
viability, T/C (second compound 10 µM, first compound 0.316 µM): 95.5%
viability, T/C (second compound 10 µM, first compound 1 µM): 94.2%
viability, T/C (second compound 10 µM, first compound 3.16 µM): 95.2%
viability, T/C (second compound 10 µM, first compound 10 µM): 80.6%
